According to US8163739B2, “2-arylthiazole-4-carboxamide derivatives, their preparation and use as pharmaceuticals” (Bayer Pharma Aktiengesellschaft, priority 2007, dated 2012):

Test system: TLR7
Test: TLR-induced cytokine release in human peripheral blood mononuclear cells (PBMC), TNF-alpha ELISA
Type: cell-based
Conditions: 18 hours incubation, TLR7 ligand, TNF-alpha by ELISA, read-out: EC50 (TNF-α TLR7)
Protocol: TLR-induced Cytokine Release in Human “Peripheral Blood Mononuclear Cells” (PBMC)
PBMCs isolated from human whole blood are stimulated using a TLR ligand.
The cytokine determination is carried out by means of ELISA kits; a proliferation/cell metabolism determination is carried out using Alamar Blue.
For the cell preparation, about 200 ml of blood are treated with an anticoagulant (e.g. citrate Monovettes). Per Leucosep tube, 15 ml of Histopaque (room temperature, RT) are poured in and forced downwards through the inserted frit by brief initial centrifugation (one minute at 1000×g, RT). 20 ml of blood are added to the tubes prepared in this way and centrifuged at 800×g for 15 minutes (RT). After centrifugation, the following layered arrangement results from the top to the bottom:
plasma-PBMC-Histopaque-filter disc-Histopaque-erythrocytes and granulocytes. The supernatant plasma is aspirated. The PBMC are transferred together with the underlying Histopaque to a new 50 ml tube, the contents of two Leucosep tubes always being added to one 50 ml tube. The 50 ml tubes are then filled to 50 ml with PBS. This cell suspension is centrifuged at 300×g (RT) for 10 minutes.
The liquid supernatant is tipped off and the cell pellet is resuspended with a little PBS and subsequently filled to 50 ml with PBS. This washing step is repeated twice. The resulting pellet is taken up in a defined volume of medium (with additives). For the testing of the substances, PBMC are incubated for 18 hours with titrated concentrations of the test substances, e.g. in the presence or absence of TLR7 or TLR9 ligands. On the next day, the supernatants are investigated for the content of TNF-alpha or other cyto- or chemokines by means of specific ELISA. The metabolic activity of the treated cells is determined with the aid of Alamar Blue.

| Compound | EC50 [nM] |
| --- | --- |
| Cn1ncc(NC(=O)c2csc(-c3ccc4c(c3)CCO4)n2)c1C(N)=O [Example 2.1, N-[5-(Aminocarbonyl)-1-methyl-1H-pyrazol-4-yl]-2-(2,3-dihydro-5-benzofuranyl)-4-thiazolecarboxamide] | 1200 |
| NC(=O)c1ccccc1NC(=O)c1csc(-c2ccc3c(c2)OCO3)n1 [Example 3.1, N-[2-(Aminocarbonyl)phenyl]-2-(3,4-methylenedioxyphenyl)-4-thiazolecarboxamide] | 300 |
| Cn1cc(NC(=O)c2csc(-c3cccc(S(C)(=O)=O)c3)n2)c(C(N)=O)n1 [Example 1.1, 2-(3-Methanesulphonylphenyl)thiazole-4-(3-carbamoyl-1-methyl-1H-pyrazol-4-yl)carboxamide] | 85 |
| COc1ccc(-c2nc(C(=O)Nc3ccccc3C(N)=O)cs2)cc1F [Example 3.4, N-[2-(Aminocarbonyl)phenyl]-2-(3-fluoro-4-methoxyphenyl)-4-thiazole-carboxamide] | 120 |
| CS(=O)(=O)c1cccc(-c2nc(C(=O)Nc3ccccc3C(N)=O)cs2)c1 [Example 3.2, N-[2-(Aminocarbonyl)phenyl]-2-(3-methylsulphonylphenyl)-4-thiazole-carboxamide] | 3400 |
| CN1CCc2c(sc(NC(=O)c3csc(-c4ccc5c(c4)CCO5)n3)c2C(N)=O)C1 [Example 2.5, 2-{[2-(2,3-Dihydrobenzofuran-5-yl)thiazole-4-carbonyl]amino}-6-methyl-4,5,6,7-tetrahydrothieno[2,3-c]pyridine-3-carboxamide] | 1100 |
